Source: ChEMBL document CHEMBL1136406, “Amide analogues of TSA: synthesis, binding mode analysis and HDAC inhibition” (Bioorg Med Chem Lett, 2003)

Molecular target: Histone deacetylase
Description: Inhibitory activity against histone deacetylase (HDAC)

| IC50 [nM] | Compound |
| --- | --- |
| 359 | C[C@H](CCCCC(=O)NO)NC(=O)c1ccc(N(C)C)cc1 |
| 152 | CN(C)c1ccc(C(=O)NCCCCCC(=O)NO)cc1 |
| 12187 | C[C@H](/C=C/C=C/C(=O)NO)NC(=O)c1ccc(N(C)C)cc1 |
